Experimental data taken from paper PMC10498496, “Design and Synthesis of Poly(2,2′-Bipyridyl) Ligands for Induction of Cell Death in Cancer Cells: Control of Anticancer Activity by Complexation/Decomplexation with Biorelevant Metal Cations” (Inorganic Chemistry, 2023).
Marks after values point to notes of the source that are not given here.

Columns and labels:
[1] = test system: A549 cells; test: MTT assay, cytotoxicity against A549 cells; format: cell-based, human; details: treated for 24 h
Procedure: Second, we conducted the quantitative evaluation of the cytotoxicity of 1, 2, and 3 against various cancer cell lines by an MTT (3-(4,5-dimethylthiazol-2-yl)-2,5-diphenyltetrazolium bromide) assay. Jurkat, MOLT-4 (these two cell lines are human T-lymphocyte leukemia cells), and U937 (human lymphoma) cells (1.5 × 10^4 cells/well) were incubated in RPMI 1640 medium containing 10% FBS (fetal bovine serum) containing 1, 2, and 3 (0–25 μM) at 37 °C for 24 h, and then treated with the MTT reagent. A549 (human alveolar adenocarcinoma) and IMR-90 (normal human fetal lung fibroblast as model of normal cells) cells (1.5 × 10^4 cells/well) were incubated in DMEM (low glucose) with 10% FBS containing 1, 2, and 3 (0–25 μM), HeLa S3 (human epithelial carcinoma cells) cells (1.5 × 10^4 cells/well) were incubated in MEM with 10% FBS containing these ligands (0–25 μM) for 24 h at 37 °C and then treated with the MTT reagent.
HeLa S3 cells and A549 cells in MEM and DMEM medium with 10% FBS (1.5 × 10^5 cells/mL per one well) were seeded in to 96 well plates and incubated for 24 h, MTT assay of poly(bpy) ligands (0–25 μM), cisplatin (0–100 μM), and actinomycin D (0–10 μM) was performed according to the same procedure described above.

[2] = test system: Jurkat cells; test: MTT assay in the presence of the caspase inhibitor Z-VAD-fmk; format: cell-based, human; details: Z-VAD-fmk 15 μM 3 h
Description: We, therefore, selected Jurkat cells to study the cell death mechanism in detail, in this work. Programmed cell death (PCD) is generally classified into several types such as apoptosis, necroptosis, paraptosis, autophagic cell death, and so on.[30]−[33] We hypothesized that 1 and 2 function as inducers of apoptosis, which is a type of PCD in cancer cells, based on the morphological change of Jurkat cells observed in Figure 1 and mechanism of chelation therapy proposed in the previous studies.[11]−[19] It is known that the caspases family are cysteine proteases that play important roles in apoptosis and necroptosis.[38] Therefore, the effect of Z-VAD-fmk, which is known as one of general caspase inhibitors, on the cell death induced by 1 and cisplatin was examined.
Figure 3 Effect of Z-VAD-fmk on the cell death in Jurkat cells induced by 1. Jurkat cells were incubated in RPMI in the presence of Z-VAD-fmk (15 μM) for 3 h and then treated with (a) 1 (1 μM) and (b) cisplatin (50 μM) for 24 h. Asterisks indicate significant difference with *(P ≤ 0.05).
To investigate the mechanism responsible for the BAPTA-AM-induced cell death in Jurkat cells, Jurkat cells were incubated with Z-VAD-fmk (15 μM) for 3 h, and then cells were treated with BAPTA-AM (12.5 μM) for 24 h followed by an MTT assay.
IMR-90 cells in DMEM medium with 10% FBS (1.5 × 10^5 cells/mL) were seeded in to 96 well plates and incubated for 24 h at 37 °C, MTT assays with poly(bpy) ligands and their metal complexes (0–100 μM), cisplatin (0–100 μM), and actinomycin D (0–10 μM) were performed following the same procedure described above. These experiments were carried out at least three times. • (b) MTT assay in the presence of a caspase inhibitor. […]

[3] = UV/vis absorption titration, apparent stability constant with Zn^2+; format: binding; details: 37 °C, 1:1 complex
Procedure: (§1) All reagents and solvents were purchased at the highest commercial quality and were used without further purification. Anhydrous DMF was obtained by distillation from calcium hydride. All aqueous solutions were prepared using deionized and distilled water. Melting points were measured using a Yanaco MP-J3 Micro Melting Point apparatus and are uncorrected. UV/vis absorption spectra were recorded on a JASCO V-630 spectrophotometer at 37 °C. The UV/vis absorption titrations of 1 with metal ions were carried out by addition of 10 mM solutions of Zn(NO3)2, NiSO4, Co(NO3)2, Fe(NO3)2, and Al(NO3)3 in H2O and 10 mM solutions of Cu(NO3)2 in DMSO. The apparent stability constants of metal–ligand complexes (Ks) were calculated by using the Bind Works 1.0 software provided by CSC (Calorimetry Science Corp.), an interactive PC software for the analysis of Binding Isotherms on Isothermal Titration Calorimeters (ITCs), to which the change in absorption values obtained by the UV/vis absorption titrations are input.[62] IR spectra were measured with a PerkinElmer FT-IR spectrophotometer (Spectrum 100) at room temperature. ^1H (300 and 400 MHz) NMR spectra were recorded on a JEOL Always 300 spectrometer and a JEOL Always 400 spectrometer, respectively. Luminescence imaging studies were performed using a fluorescent microscope (Biorevo, BZ-9000, Keyence). […]

[4] = UV/vis absorption titration, apparent stability constant with Co^2+; format: binding; details: ligand 30 μM, DMSO/30 mM HEPES pH 7.4 (7/3), 37 °C, approximate, assuming 1:1 complexation (1:2 complex)
Description: (§2) Although simple comparison of the stability of metal complexes is difficult due to the different units for 1:1 complexation (M^–1) and 1:2 complexation (M^–2), it is likely that the thermodynamic stability of Co^2+-(1)2 and Fe^2+-(1)2 complexes are similar to that of Zn^2+-1, Ni^2+-1, and Cu^2+-1 complexes.[40]
as §1, with “The UV/vis absorption titrations of 1 with metal ions were carried out by addition of 10 mM solutions of Zn(NO3)2, NiSO4, Co(NO3)2, Fe(NO3)2, and Al(NO3)3 in H2O and 10 mM solutions of Cu(NO3)2 in DMSO.” left out, “respectively.” for “respectively. Luminescence imaging studies were performed using a fluorescent microscope (Biorevo, BZ-9000, Keyence).”

[5] = UV/vis absorption titration, apparent stability constant with Fe^2+; format: binding; details: ligand 30 μM, DMSO/30 mM HEPES pH 7.4 (7/3), 37 °C, approximate, assuming 1:1 complexation (1:2 complex)
Description: as §2
as §1, with “The UV/vis absorption titrations of 1 with metal ions were carried out by addition of 10 mM solutions of Zn(NO3)2, NiSO4, Co(NO3)2, Fe(NO3)2, and Al(NO3)3 in H2O and 10 mM solutions of Cu(NO3)2 in DMSO.” left out, “respectively.” for “respectively. Luminescence imaging studies were performed using a fluorescent microscope (Biorevo, BZ-9000, Keyence).”

SMILES | EC50 ([1]; 37 °C) [µM] | cell viability of Jurkat cells after preincubation with Z-VAD-fmk ([2]; then compound 50 μM for 24 h) | EC50 ([1]; Homo sapiens, A549, 37 °C) [µM] | cell viability of Jurkat cells after preincubation with Z-VAD-fmk ([2]; then compound 1 μM for 24 h) | Kd ([3]; DMSO/30 mM HEPES pH 7.4 (7/3), read-out: dissociation constant Kd (= 1/Ks) of Zn^2+ complex) [µM] | apparent stability constant log Ks with Zn(NO3)2 ([3]; ligand 30 μM, DMSO/30 mM HEPES pH 7.4, I = 0.1 (NaNO3) (7/3)) | apparent stability constant log Ks with Co(NO3)2 [4] | apparent stability constant log Ks with Fe(NO3)2 [5]
N.N.[Cl][Pt][Cl] [cisplatin, reference compound] | > 100 | considerably restored |  |  |  |  |  | 
c1ccc(-c2ccc(OCc3cc(COc4ccc(-c5ccccn5)nc4)cc(COc4ccc(-c5ccccn5)nc4)c3)cn2)nc1 [compound 1, 1,3,5-Tris(([2,2′-Bipyridin]-5-yloxy)methyl)benzene] |  |  | 15 ± 0.79 | considerably restored | 0.28 ± 0.01 | 6.56 ± 0.02 (1:1 complex) | >6 ^b (1:2 complex) | >5.5 ^b (1:2 complex)
